Reference: patent US4551472A, “Unsymmetrical bis-carbamate compounds” (priority 1984, dated 1985)

Legend:
[1] = Mammalian Toxicity, peroral toxicity to rat; type: in vivo; settings: in vivo, po, read-out: A.O. Rat LD50
Method: Certain compounds were also evaluated to determine their peroral toxicity to mammals by conventional methods. The representative animal selected for this experiment was the rat.

Corn = assay: Phytotoxicity Test, corn; settings: 2500 ppm spray, ten days
Method: (§1) Experiments were also conducted to determine the phytotoxicity of representative compounds with respect to healthy fresh plants. […] The test plants were sprayed in accordance with the procedure described above for the Mite Foliage Spray Test so as to deliver approximately 100 milliliters of test solution to the leaves of each plant tested. The sprayed plants and controls were set aside for approximately one hour to allow the foliage to dry and were then placed in the greenhouse. After ten days the plants were visually inspected to determine the extent of foliage injury. A rating of 1 indicates no perceptible injury; 5 indicates the plant was dead and ratings of 2, 3 and 4 indicate intermediate degrees of injury based upon the number and extent to which leaves were injured.

Tom = assay: Phytotoxicity Test, tomato; settings: 2500 ppm spray, ten days
Soy = assay: Phytotoxicity Test, soy; settings: 2500 ppm spray, ten days
Method: as §1

Cotton = assay: Phytotoxicity Test, cotton; settings: 2500 ppm spray, ten days
[2] = test system: root-knot nematode, Meloidogyne incognita var. acrita; assay: Nematocide Test; also: key: 1: severe galling, equal to untreated plants; 2: moderate galling; 3: light galling; 4: very light galling; 5: no galling, perfect control; type: in vivo; settings: 3.33 m.g. per jar; cucumber, approximately 3 weeks
Method: The test organism used was the infective migratory larvae of the root-knot nematode, Meloidogyne incognita var. acrita, reared in the greenhouse on roots of cucumber plants. Infected plants were removed from the culture, and the roots are chopped very finely. A small amount of this inoculum was added to a pint jar containing approximately 180 cc. of soil. The jars were capped and incubated for one week at room temperature. During this period eggs of the nematode were hatched, and the larval forms migrated into the soil.
Ten ml. of the test formulation were added to each of the two jars for each dosage tested. Following the addition of chemical, the jars were capped, and the contents thoroughly mixed on a ball mill for 5 minutes.
The test compounds were formulated by a standard procedure of solution in acetone addition of an emulsifier, and dilution with water. Primary screening tests were conducted at 3.33 m.g. of the test compound per jar.
The jars were left capped at room temperature for a period of 48 hours, and the contents then transferred to 3 inch pots. Subsequently, the pots were seeded to cucumber as an indicator crop and placed in the greenhouse where they were cared for in the normal fashion for approximately 3 weeks.
The cucumber plants were then taken from the pots, the soil removed from the roots; and the amount of galling visually rated.
In the test for activity against nematodes (nem) activity was rated as follows: […]

Bean = assay: Phytotoxicity Test, bean; settings: 2500 ppm spray, ten days
Method: as §1

Row | SMILES | LD50 [1] [mg/kg] | Phytotoxicity: Corn (Corn) | Phytotoxicity: Tom (Tom) | Phytotoxicity: Soy (Soy) | Phytotoxicity: Cotton (Cotton) | Biological Activity: Nem (nematode, galling rating) [2] | Phytotoxicity: Bean (Bean)
1 | CSC(C)=NOC(=O)N(C)SN(C)C(=O)ON=CC(C)(C)SC [Example I, N-[2-Methylthio-2-methylpropionaldehyde O-(N-methylcarbamoyl)oxime]N-[1-methylthioacetaldehyde O-(N-methylcarbamoyl)oxime]sulfide] | 2.1 | 1 | 1 | 1 | 2 | 5 | 2
2 | CN(SN(C)C(=O)ON=C1SC(C)(C)C(=O)N1C)C(=O)ON=C1CSCCS1 [Example III, N-[2-(O-(N-methylcarbamoyl)oximino]-1,4-dithiane]-N-[2-O-(N-methylcarbamoyl)oximino-3,5,5-trimethylthiazolidin-4-one]sulfide] | 160 | 2 | 1 | 2 | 2 | 1 | 1
3 | CSC(C)=NOC(=O)N(C)SN(C)C(=O)ON=C1CSCCS1 [Example II] | 190 | 1 | 1 | 1 | 1 | 5 | 1
4 | CSC(C)=NOC(=O)N(C)SN(C)C(=O)Oc1cccc2c1OC(C)(C)C2 [Example V, N-[1-Methylthioacetaldehyde O-(N-methylcarbamoyl)oxime]N-[2,2-dimethyl-2,3-dihydro-7-(N-methylcarbamoyloxy)benzofuran]sulfide] | 15.9 | 1 | 2 | 2 | 2 | 5 | 2
5 | CSC(C)(C)C=NOC(=O)N(C)SN(C)C(=O)Oc1cccc2ccccc12 [Example VI, N-[2-Methylthio-2-methylpropionaldehyde O-(N-methylcarbamoyl)oxime]N-[1-(N-methylcarbamoyloxy)naphthalene]sulfide] | 2.97 | 1 | 1 | 1 | 1 | 4 | 1
6 | CSC(C)=NOC(=O)N(C)SN(C)C(=O)Oc1ccc(C(C)(C)C)cc1 [IX, N-[1-Methylthioacetaldehyde O-(N-methylcarbamoyl)oxime]N-[4-tert-butylphenyl-(N-methylcarbamoyloxy)]sulfide] | 226 | 1 | 1 | 1 | 1 | 3 | 1
7 | CSC(C)=NOC(=O)N(C)SN(C)C(=O)Oc1cccc2ccccc12 [VII, N-[1-Methylthioacetaldehyde O-(N-methylcarbamoyl)oxime]N-[1-naphthylmethylcarbamate]sulfide] | 160 | 1 | 1 | 2 | 2 | 4 | 1
8 | CSC(C)=NOC(=O)N(C)SN(C)C(=O)Oc1ccc(C(C)C)cc1 [VIII, N-[1-Methylthioacetaldehyde O-(N-methylcarbamoyl)oxime]N-[4-isopropylphenyl-(N-methylcarbamoyloxy)]sulfide] | 160 | 1 | 1 | 1 | 1 | 4 | 1
9 | CSC(C)=NOC(=O)N(C)SN(C)C(=O)Oc1ccc([N+](=O)[O-])cc1 [XII, N-[1-Methylthioacetaldehyde O-(N-methylcarbamoyl)oxime]N-[1-(N-methylcarbamoyloxy)-4-nitrobenzene]sulfide] | 453 | 1 | 1 | 1 | 1 | 1 | 1
10 | CCOC(=O)C(=NOC(=O)N(C)SN(C)C(=O)ON=C(C)SC)SC [XIII, N-[1-Methylthioacetaldehyde O-(N-methylcarbamoyl)oxime]N-[1-methylthio-1-ethoxycarbonylformaldehyde O-(N-methylcarbamoyl)oxime]sulfide] | 160 | 1 | 1 | 2 | 1 | 3 | 1
11 | CSC(C)=NOC(=O)N(C)SN(C)C(=O)Oc1cccc2c1CCCC2 [XIV, N-[1-Methylthioacetaldehyde O-(N-methylcarbamoyl)oxime]N-[1-(N-methylcarbamoyloxy)-5,6,7,8-tetrahydronaphthalene]sulfide] | 285 | 1 | 1 | 1 | 1 | 4 | 1
12 | CSC(C)=NOC(=O)N(C)SN(C)C(=O)Oc1ccc(SC)c(C)c1 [XV, N-[1-Methylthioacetaldehyde O-(N-methylcarbamoyl)oxime]N-[O-(N-methylcarbamoyl)-4-methylthio-3-methylphenyl]sulfide] | 40 | 1 | 1 | 1 | 1 | 4 | 1
13 | COC(=O)Nc1ccc(OC(=O)N(C)SN(C)C(=O)ON=C(C)SC)cc1C(C)C [XVI, N-[1-Methylthioacetaldehyde O-(N-methylcarbamoyl)oxime]N-[4-methoxycarbonylamino-(N-methylcarbamate)-3-isopropylphenyl]sulfide] | 28.3 | 1 | 1 | 1 | 1 | 4 | 1
14 | CSC(C)=NOC(=O)N(C)SN(C)C(=O)Oc1cc(C)c(C)c(C)c1 [XVIII, N-[1-Methylthioacetaldehyde O-(N-methylcarbamoyl)oxime]N-[3,4,5-trimethylphenyl-(N-methylcarbamoyloxy)]sulfide] | 95.1 | 1 | 1 | 1 | 1 | 4 | 1
15 | CN(SN(C)C(=O)Oc1cccc2ccccc12)C(=O)ON=C1CSCCS1 [XXII, N-[2-O-(N-methylcarbamoyl)oximino-1,4-dithiane]N-[1-naphthyl-(N-methylcarbamoyloxy)]sulfide] | 453 | 1 | 1 | 2 | 1 | 4 | 1
